# Source: patent US12594265B2, “Methods and compositions for inhibition of STAT3” (Ohio State Innovation Foundation, priority 2017, dated 2026)
# Marks after values point to notes of the source that are not given here.
# What was measured:
# chronic EAE model of MS = assay: Chronic EAE model of MS (MOG-immunized B6 mice); assay type: in vivo
# Description: (§1) EAE Induction. Immunization: 8-10 week old B6/WT or SJL/WT mice were s.c. injected over four sites in the flank with 200 μg MOG 35-55 or […] (CS bio) in an emulsion with CFA (Difco). 200 ng pertussis toxin (List) per mouse in PBS was injected i.p. at the time of immunization and 48 h later. Adoptive transfer: Splenocytes were isolated from naïve 5-10-week-old Vα2.3/Vβ8.2 TCR transgenic mice and activated with 10 μg/ml of MBP Ac1-11 with or without rmIL-6 in 24-well plates at […] with irradiated B10.PL splenocytes (6×10^8 cells/well). After 72 hours, the cells were washed with PBS and 8×10^6 were injected i.p. into naïve B10.PL mice. Evaluation. The mice were evaluated daily for clinical signs of EAE. Mice were scored on scale of 0 to 6:0, no clinical disease; 1, limp/flaccid tail; 2, moderate hind limb weakness; 3. severe hind limb weakness; 4. complete hind limb paralysis; 5 quadriplegia or premoribund state; and 6, death.
# The in vivo efficacy of LLL12b was also evaluated in chronic EAE model of MS in immunized B6 mice by treating EAE mice with […] of LLL12b for 7 days after disease onset. FIGS. 8A-8B show representative data for the effect of a representative disclosed compound, LLL12b, for suppression of EAE development in a chronic EAE model of MS. Briefly, naïve WT/B6 mice were immunized with […].
# [1] = test system: adoptively transferred EAE; assay: Adoptively transferred EAE model of MS (B10.PL mice); assay type: in vivo
# Description: as §1
# The in vivo efficacy of LLL12b was evaluated in adoptively transferred EAE model by treating EAE mice with […] of LLL12b for 7 days after disease onset. FIGS. 9A-9C show representative data for the effect of a representative disclosed compound, LLL12b, on suppression of EAE development in an adoptive transfer EAE model of MS. […] The mice were then treated with either DMSO or a representative disclosed compound, LLL12b, (10 mg/kg) by daily intraperitoneal for 7 days. […] The summary of all four independent experiments was shown below in Table 1.
# EAE was induced via adoptive transfer of activated myelin-specific CD4 T cells from Vα2.3/Vβ8.2 TCR transgenic mice into B10.PL mice. LLL12b or DNSO (vehicle control) was injected i.p. into mice daily for 7 days, starting when 70% of the mice developed clinical EAE. Mice were monitored for clinical signeds of EAE. Assessment of clinical EAE includes the incidence of EAE, the mean peak clinical scores±SEM and the area under the curve. The results of three independent experiments are shown. ^aP<0.01, comparing incidence of EAE in LLL12b group versus DMSO group. ^bP<0.01, comparing mean peak clinical score of LLL12b group versus DMSO group. ^cP<0.05, comparing area under the curve of LLL12b group versus DMSO group.
# LLL12b treatment suppresses the production of inflammatory cytokines in myelin-specific CD4 T cells and promotes Treg development in vivo. The ex vivo analysis to determine the T effector function of myelin-specific CD4 T cells as well as Treg development in treated mice was carried. FIGS. 10A-10C show representative data for the effect of treatment with a representative disclosed compound. LLL12b, on Treg development in an adoptively transferred EAE model of MS. Briefly, splenocytes from were isolated from either a LLL12b- or DMSO-treated group as indicated and analysed.
smiles,measurement,setting,value
CN(C)C(=O)Oc1cccc2c1C(=O)c1cccc(S(N)(=O)=O)c1C2=O [LLL12b],EAE development (mean clinical score),"chronic EAE model of MS; 10 mg/kg for 7 days, day 14 to day 20, after disease onset",significantly suppresses EAE development
same,IL-17 production of splenocytes from treated mice (ELISA),"chronic EAE model of MS; ex vivo, activated with MOG 35-55 for 3 days",decreased IL-17 production
same,EAE development (in words),[1]; 10 mg/kg daily intraperitoneal for 7 days after disease onset,significantly suppresses EAE development
same,level of CD25+FoxP3+CD4+ Treg cells in splenocytes of treated animals,[1]; ex vivo flow cytometry,statistically significant increase
same,production of IFNγ by splenocytes of treated animals (ELISA),"[1]; ex vivo, activated with MBP Ac1-11 for 3 days",notable decrease
same,Area under the curve (clinical score),[1]; i.p. daily for 7 days,22.12 ± 2.09 ^c
same,Incidence of EAE (%),"[1]; i.p. daily for 7 days, starting when 70% of the mice developed clinical EAE",26/34 (76%) ^a
same,Mean peak clinical score,"[1]; i.p. daily for 7 days, ± SEM",2.03 ± 0.27 ^b
